In patent US10316008B2, “KCNQ potassium channel agonist, and preparation method therefor and use thereof” (SHANGHAI INSTITUTE OF MATERIA MEDICA, CHINESE ACADEMY OF …, priority 2014, dated 2019):
Structures can show the parent of a compound that is named as a salt.

What was measured:
[1] = tested on: KCNQ potassium channel; experiment: Whole-cell voltage-clamp recording in CHO-K1 cells transfected with KCNQ plasmid; format: cell-based; settings: for I/I0: current enhancement factor, −10 mV testing voltage, compound concentration 10 μM, >1 activating, <1 inhibiting; for ΔV1/2: shift of V1/2, negative sign = left-ward shift of current activation curve, compound 10 μM, CHO-K1 cells
Description: The culture medium for Chinese hamster oocytes (CHO-K1) (Culture Collection of Chinese Academy of Sciences): 50/50 DMEM/F-12 (Cellgro, Manassas, Va.), added with 10% fetal bovine serum (FBS) (Gibco, Australia) and 2 mM L-glutamic acid (Invitrogen). […] Lipofectamine 2000™ agent (Invitrogen) was used for Transfection according to the protocol thereof. GFP (green fluorescent protein) was cotransfected to be used as a indication of successful converting into KCNQ plasmid.
Whole-cell voltage-clamp recording was performed on an Axopatch-200B amplifier (Molecular Devices, Sunnyvale, Calif.) at room temperature. The electrode was made by drawing borosilicate glass capillary (World Precision Instruments, Sarasota, Fla.). The electric resistance of the electrode filled with an intracellular fluid is 3 to 5 MΩ. […] During the recording, an extracellular fluid was continuously perfused by using a BPS perfusion system (ALA Scientific Instruments, Westburg, N.Y.). The composition of the extracellular fluid (1 L) was as follows: 140 mM NaCl(Sigma), 5 mM KCl(Sigma), 2 mM CaCl2(Sigma), 1.5 mM MgCl2(Sigma), 10 mM HEPES(Sigma) and 10 mM glucose(Sigma) (pH was adjusted to 7.4 with NaOH). […] Series resistors compensate 60 to 80%. Up to date, multivoltage scheme was generally adopted, wherein the clamp voltage was set at −80 mV, stimulating voltage was a gradient voltage from −90 mV to 60 mV with interval of 10 mV, and the stimulating time for each voltage was 2000 ms.
V1/2 is the voltage at which 50% of cells were activated, ΔV1/2 is the shift amount of V1/2, negative sign (−) represents a left-ward shift of the current activation curve. I/I0 represents the current enhancement factor, wherein, I0 is the maximum induced current produced under stimulation of −10 mV testing voltage after administrating cells with blank extracellular fluid, I is the maximum induced current produced under stimulation of −10 mV testing voltage after administrating the drug (the compound concentration was 10 μM), I/I0>1 represents activating activity, and I/I0<1 represents inhibiting activity. N is the number of tested cells. NT represents non-tested.

[2] = target: T1, KCNQ2 homotetramer channel (Homo sapiens, UniProt O43526); experiment: KCNQ2 channel dose-response curve in CHO-K1 cells transfected with KCNQ2 plasmid; format: cell-based
T1 construct: expressed in transfected cells; host or cells: CHO-K1
Description: The culture medium for Chinese hamster oocytes (CHO-K1) (Culture Collection of Chinese Academy of Sciences): 50/50 DMEM/F-12 (Cellgro, Manassas, Va.), added with 10% fetal bovine serum (FBS) (Gibco, Australia) and 2 mM L-glutamic acid (Invitrogen). Expression of KCNQ channels: 24 h before transfection, CHO-K1 spreaded on a dish with a diameter of 60 mm. Lipofectamine 2000™ agent (Invitrogen) was used for Transfection according to the protocol thereof. GFP (green fluorescent protein) was cotransfected to be used as a indication of successful converting into KCNQ plasmid.
Whole-cell voltage-clamp recording was performed on an Axopatch-200B amplifier (Molecular Devices, Sunnyvale, Calif.) at room temperature. The electrode was made by drawing borosilicate glass capillary (World Precision Instruments, Sarasota, Fla.). The electric resistance of the electrode filled with an intracellular fluid is 3 to 5 MΩ. The composition of the intracellular fluid (1 L) was as follows: 145 mM KCl(Sigma), 1 mM MgCl2(Sigma), 5 mM EGTA(Sigma), 10 mM HEPES(Sigma) and 5 mM MgATP(Sigma) (pH was adjusted to 7.3 with KOH). During the recording, an extracellular fluid was continuously perfused by using a BPS perfusion system (ALA Scientific Instruments, Westburg, N.Y.). The composition of the extracellular fluid (1 L) was as follows: 140 mM NaCl(Sigma), 5 mM KCl(Sigma), 2 mM CaCl2(Sigma), 1.5 mM MgCl2(Sigma), 10 mM HEPES(Sigma) and 10 mM glucose(Sigma) (pH was adjusted to 7.4 with NaOH). Electric signal was filtered at 1 kHz and further converted into digital signal by using pClamp 9.2 software (Molecular Devices, Sunnyvale, Calif.) in DigiData 1322A. Series resistors compensate 60 to 80%. Up to date, multivoltage scheme was generally adopted, wherein the clamp voltage was set at −80 mV, stimulating voltage was a gradient voltage from −90 mV to 60 mV with interval of 10 mV, and the stimulating time for each voltage was 2000 ms.
The experimental procedure was the same as that in Electrophysiological Example 1. […]

[3] = tested on: convulsive mice induce by MES; experiment: MES (maximum electroshock) induced convulsion model, oral perfusion; format: in vivo, KM mice; settings: Mus musculus, 0.5 h; mice, oral perfusion, MES 30 mins after administration; read-out: ED50 (50% effective dose)
Text: YLS-9A model physiological pharmaceutical electronic stimulator was used in the experiment to induce convulsion of mice, and specific parameters were set as follows: configuration 8, stimulating voltage: 160V, period of stimulation: 5.4 sec. Healthy KM mice (SPF level, male, body weight: 18 to 22 g) were selected for the experiment. After the ear tip of the mice was sufficiently wetted with physiological saline, the mice was electrically stimulated once with ear clip electrode, and tonic hind-limb seizure was deemed as indication of convulsion. The mice were screened one day before the experiment to weed out the dead mice and the ones without generalized tonic seizure. The qualified mice were caged randomly with access to water at liberty. Before the experiment started, the mice were fasted for 8 h.
The compounds to be tested were freshly formulated on the day of experiment. RTG hydrochloride was dissolved with ultrapure water to obtain a solution with desired concentration. K41.HCl and K43.HCl were formulated with 5% DMSO+95% of 1% Tween80, that is, a proper amount of the compound to be tested was weighted and, first, sufficiently dissolved in 5% DMSO, and then added with a desire volume of 1% Tween80 to be sufficiently suspended to form a suspension with a certain drug concentration. The mice screened one day before were randomly grouped with each group having 10 mice, marked, weighted and then administered with the compound to be tested or solvent (5% DMSO+95% (1% Tween 80)) by oral perfusion with administered volume of 0.2 ml/10 g. The dose range for each compound was 1 to 56 mg/kg for RTG, 1 to 40 mg/kg for K41.HCl, and 0.5 to 4 mg/kg for K43.HCl. 30 mins after administration, MES experiment was performed and the experimental parameters were the same as the above. The number of mice with generalized tonic-clonic convulsion in each group was recorded, the protection rate of each of the compounds to be tested on convulsive mice induce by MES was calculated and dose-response curve for each compound was plotted. The dose-response curve for each compound was obtained according to the analysis of Graphpad Prism 5 software, as shown in FIG. 3.

[4] = Rotarod experiment, motor coordination ability (acute neurotoxicity); format: in vivo, KM mice; settings: both sexes, KM, mouse, in vivo; mice, oral perfusion, Rotarod 30 mins after administration; read-out: TD50 (50% acute neurotoxicity dose)
Description: (§1) YLS-4C Rotarod system was used in the experiment, wherein the diameter of the rod was 3 cm and the rotate speed was set at 6 rpm. Healthy KM mice (SPF level) were selected, wherein male and female were equal, the body weight was 18 to 22 g. One day before experiment, the mice were place on the rotarod for training and screening. The tail tip of mice was held to make them creep on the rotarod during the training. […] The mice that jumped on the rotarod or griped the rotarod were weed out. In addition, three time periods were set with 1 min for each. […] The qualified mice were randomly caged according to the gender, and allowed to eat and drink freely.
(§2) On the day of the experiment, each compound to be tested was freshly formulated by the same method as described in MES experiment. If the compound was not sufficiently suspended, the suspension was further mixed by ultrasonication for 20 min so as to make the compound sufficiently suspended. […] 30 mins after administration, Rotarod experiment was performed and the experiment parameters were the same as the above. The number of mice that fell off from the rorarod was recorded, and the influence of each compound on motor coordination ability of mice was analyzed. The curve for dose of each compound verse motor deficit (percentage) of mice for each compound was obtained according to the analysis of Graphpad Prism 5 software and was shown in FIG. 4.

[5] = tested on: motor coordination ability of mice; experiment: as above; format: in vivo, KM mice; settings: TD50 Rotarod / ED50 MES
Description: as §1, §2

[6] = data from FDA Pharmacology Review(s), Potiga tablets; cited from earlier work
[7] = Stability of solution exposed to air; settings: solution exposed to air (aqueous solution for RTG hydrochloride)

T1 sequence (O43526 whole entry): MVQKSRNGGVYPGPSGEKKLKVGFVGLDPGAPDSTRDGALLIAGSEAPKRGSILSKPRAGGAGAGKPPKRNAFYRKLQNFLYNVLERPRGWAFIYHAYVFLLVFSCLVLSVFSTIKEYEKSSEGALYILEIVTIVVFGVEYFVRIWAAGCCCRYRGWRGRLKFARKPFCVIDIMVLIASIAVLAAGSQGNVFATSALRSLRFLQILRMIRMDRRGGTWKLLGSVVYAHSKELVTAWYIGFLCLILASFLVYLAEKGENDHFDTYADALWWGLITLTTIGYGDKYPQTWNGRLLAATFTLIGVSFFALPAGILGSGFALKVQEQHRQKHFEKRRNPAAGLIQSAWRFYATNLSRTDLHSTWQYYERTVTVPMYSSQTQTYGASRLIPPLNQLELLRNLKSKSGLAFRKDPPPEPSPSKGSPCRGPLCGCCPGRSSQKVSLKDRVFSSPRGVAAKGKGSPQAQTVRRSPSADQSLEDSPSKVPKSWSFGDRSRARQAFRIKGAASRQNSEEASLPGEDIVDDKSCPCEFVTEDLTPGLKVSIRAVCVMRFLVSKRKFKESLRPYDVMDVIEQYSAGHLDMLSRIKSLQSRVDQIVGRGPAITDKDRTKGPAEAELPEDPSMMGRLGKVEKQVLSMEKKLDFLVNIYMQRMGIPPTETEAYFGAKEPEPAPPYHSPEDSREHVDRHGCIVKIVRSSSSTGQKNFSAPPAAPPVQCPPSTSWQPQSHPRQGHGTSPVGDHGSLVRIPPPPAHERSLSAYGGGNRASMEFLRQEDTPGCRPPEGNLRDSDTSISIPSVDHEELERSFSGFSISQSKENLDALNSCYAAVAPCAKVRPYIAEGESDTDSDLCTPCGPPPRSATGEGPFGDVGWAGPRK

C#CCN(Cc1ccc(F)cc1)c1ccc(NC(=O)OC)cc1C [K40•HCl]
I/I0 [1]: 1.40 ± 0.04
ΔV1/2 [1]: −3.42 ± 1.54 mV

C#CCN(Cc1ccc(F)cc1)c1ccc(NC(=O)OC)c(C#N)c1 [K42•HCl]
I/I0 [1]: 0.52 ± 0.01
ΔV1/2 [1]: −5.2 ± 0.7 mV

C#CCN(Cc1ccc(F)cc1)c1ccc(NC(=O)CN(C)C)cc1 [K55•HCl]
I/I0 [1]: 1.72 ± 0.14
ΔV1/2 [1]: −10.76 ± 4.51 mV

C#CCN(Cc1ccc(F)cc1)c1ccc(NC(=O)C2CCC(F)(F)CC2)cc1 [K58•HCl]
I/I0 [1]: 1.78 ± 0.19
ΔV1/2 [1]: −33.68 ± 1.05 mV

[2H]C([2H])(C#C)N(Cc1ccc(F)cc1)c1ccc(NC(=S)OC)cc1 [K47•HCl, methyl 4-(N-parafluorobenzyl-N-3,3-dideuteriumpropargyl-amino)phenylaminothioformate]
I/I0 [1]: 2.10 ± 0.08
ΔV1/2 [1]: −18.10 ± 0.03 mV

C#CCN(Cc1ccc(F)cc1)c1ccc(NC(=O)C2CCCO2)cc1 (stereo not shown) [K54•HCl]
I/I0 [1]: 7.55 ± 1.92
ΔV1/2 [1]: −30.9 ± 4.1 mV

C#CCN(Cc1ccc(F)cc1)c1ccc(NC(=O)COC)cc1 [K52•HCl, N-[4-(N-p-fluorobenzyl-N-propargyl-amino)-phenyl]-2-methoxyacetamide]
I/I0 [1]: 5.80 ± 0.52
ΔV1/2 [1]: −10.93 ± 1.86 mV

methyl 4-(N-parafluorobenzyl-N-3-cyclopropyl propargyl-amino) phenylaminothioformate [K59•HCl]
I/I0 [1]: 1.01 ± 0.13
ΔV1/2 [1]: −0.14 ± 2.33 mV

C#CCN(Cc1ccc(F)cc1)c1c(C)cc(NC(=O)OC)cc1C [K44•HCl]
I/I0 [1]: 0.72 ± 0.05
ΔV1/2 [1]: 13.47 ± 2.13 mV

CCOC(=O)Nc1ccc(NCc2ccc(F)cc2)cc1N [RTG, retigabine, reference compound]
EC50 [2]: 1.32 µM
ED50 [3]: 21.8 mg/kg
TD50 at 30 min [4]: 74.2 mg/kg
P.I (Protective index)=TD50/ED50 [5]: 3.40
reported lethal dose [6]: 100 mg/kg
stability of solution exposed to air [7]: quickly become blue and insoluble precipitate is formed

C#CCN(Cc1ccc(F)cc1)c1ccc(NC(=S)OC)cc1 [K49•HCl, methyl 4-(N-parafluorobenzyl-N-propargyl-amino) phenylaminothioformate]
I/I0 [1]: 4.4 ± 1.6
ΔV1/2 [1]: −22 ± 2.5 mV

C#CCN(Cc1ccc(F)cc1)c1ccc(NC(=O)OC)cc1OC [K45•HCl]
I/I0 [1]: 0.57 ± 0.01
ΔV1/2 [1]: −5.1 ± 0.9 mV

C#CCN(Cc1ccc(F)cc1)c1ccc(NC(=O)CNC(C)=O)cc1 [K56•HCl]
I/I0 [1]: 1.10 ± 0.10
ΔV1/2 [1]: −2.0 ± 1.3 mV

C#CCN(Cc1ccc(F)cc1)c1ccc(NC(=O)OC)c(OC(F)(F)F)c1 [K48•HCl]
I/I0 [1]: 1.24 ± 0.16
ΔV1/2 [1]: −13.2 ± 1.5 mV

C#CCN(Cc1ccc(F)cc1)c1ccc(NC(=O)N(C)OC)cc1 [K51•HCl]
I/I0 [1]: 1.61 ± 0.08
ΔV1/2 [1]: −8.89 ± 1.12 mV

C#CCN(Cc1ccc(F)cc1)c1ccc(NC(=O)CC(=O)OC)cc1 [K57•HCl]
I/I0 [1]: 8.13 ± 2.57
ΔV1/2 [1]: −31.55 ± 0.86 mV

C#CCN(Cc1ccc(F)cc1)c1ccc(NC(=O)OC)c(OC)c1 [K46•HCl]
I/I0 [1]: 1.52 ± 0.55
ΔV1/2 [1]: −6.5 ± 2.1 mV

C#CCN(Cc1ccc(F)cc1)c1ccc(NC(=O)COCC)cc1 [K53•HCl]
I/I0 [1]: 7.31 ± 1.09
ΔV1/2 [1]: −14.81 ± 0.92 mV
